ChEMBL document CHEMBL5154845, “Dual-acting antitumor agents targeting the A2A adenosine receptor and histone deacetylases: Design and synthesis of 4-(furan-2-yl)-1H-pyrazolo[3,4-d]pyrimidin-6-amine derivatives” (Eur J Med Chem, 2022)

What was measured:
[1] = target: Adenosine receptor A2a (Homo sapiens, UniProt P29274); assay: Displacement of [3H][…] from human A2AAR incubated for 60 mins by scintillation counter analysis
[2] = target: Histone deacetylase 1 (Homo sapiens, UniProt Q13547); assay: Inhibition of HDAC1 (unknown origin) using trypsin and LGK(Ac)-AMC as substrates incubated for 1 hr and measured by fluorescence assay
Histone deacetylase 1, sequence (Q13547 whole entry): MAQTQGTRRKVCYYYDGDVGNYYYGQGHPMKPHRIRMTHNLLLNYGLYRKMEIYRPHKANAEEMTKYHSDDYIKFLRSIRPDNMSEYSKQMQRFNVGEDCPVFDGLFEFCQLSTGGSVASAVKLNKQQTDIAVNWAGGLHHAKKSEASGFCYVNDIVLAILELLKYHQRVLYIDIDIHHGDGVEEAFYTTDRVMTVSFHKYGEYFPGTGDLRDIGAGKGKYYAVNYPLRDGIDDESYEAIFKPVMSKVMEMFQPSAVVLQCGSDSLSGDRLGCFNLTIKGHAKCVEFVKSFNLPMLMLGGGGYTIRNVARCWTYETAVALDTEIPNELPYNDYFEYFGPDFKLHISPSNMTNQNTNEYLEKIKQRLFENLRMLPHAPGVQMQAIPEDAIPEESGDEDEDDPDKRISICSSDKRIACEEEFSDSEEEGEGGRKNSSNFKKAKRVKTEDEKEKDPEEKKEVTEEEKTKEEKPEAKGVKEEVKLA

[3] = tested on: MC-38; assay: Antiproliferative activity against mouse MC38 cells after 72 hrs by CCK-8 assay; format: functional
[4] = tested on: CT26; assay: Antiproliferative activity against mouse CT26 cells after 72 hrs by CCK-8 assay; format: functional
[5] = Half-life in male ICR mouse at 20 mg/kg, po measured up to 24 hrs by LC-MS/MS analysis; format: ADME, organism-based; conditions: in vivo
[6] = target: T1, Adenosine receptor A2b (Homo sapiens, UniProt P29275); assay: Displacement of [3H]DPCPX from human A2BAR incubated for 60 mins by scintillation counter analysis
T1 sequence (P29275 whole entry): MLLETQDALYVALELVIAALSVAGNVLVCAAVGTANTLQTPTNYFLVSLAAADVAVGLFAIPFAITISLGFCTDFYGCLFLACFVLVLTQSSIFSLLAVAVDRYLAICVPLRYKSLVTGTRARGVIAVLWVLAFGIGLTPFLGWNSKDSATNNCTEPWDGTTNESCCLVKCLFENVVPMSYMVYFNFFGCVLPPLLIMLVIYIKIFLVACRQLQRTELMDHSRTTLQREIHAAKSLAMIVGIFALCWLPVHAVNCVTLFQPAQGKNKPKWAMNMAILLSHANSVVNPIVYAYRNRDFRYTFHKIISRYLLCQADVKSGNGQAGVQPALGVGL

[7] = target: T2, Adenosine receptor A3 (Homo sapiens, UniProt P0DMS8); assay: Displacement of [3H]HEMADO from human A3AR incubated for 60 mins by scintillation counter analysis
T2 sequence (P0DMS8 whole entry): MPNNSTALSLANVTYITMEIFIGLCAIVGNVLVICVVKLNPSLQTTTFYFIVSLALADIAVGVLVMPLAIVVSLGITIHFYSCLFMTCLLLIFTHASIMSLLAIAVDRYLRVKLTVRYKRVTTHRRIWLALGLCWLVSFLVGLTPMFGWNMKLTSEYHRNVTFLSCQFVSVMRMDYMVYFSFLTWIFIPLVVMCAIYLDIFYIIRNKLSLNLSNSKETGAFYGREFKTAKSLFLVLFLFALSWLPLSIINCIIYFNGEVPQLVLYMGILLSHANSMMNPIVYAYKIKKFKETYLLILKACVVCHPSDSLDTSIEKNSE

[8] = Tmax in male ICR mouse at 20 mg/kg, po measured up to 24 hrs by LC-MS/MS analysis; format: ADME, organism-based; conditions: in vivo
[9] = AUC (0 to t) in male ICR mouse at 20 mg/kg, po measured up to 24 hrs by LC-MS/MS analysis; format: ADME, organism-based; set-up: time < 24 hrs, dose 20 mg/kg, route po; conditions: in vivo
[10] = Mean residence time in male ICR mouse at 20 mg/kg, po measured up to 24 hrs by LC-MS/MS analysis; format: ADME, organism-based; conditions: in vivo
[11] = target: T3, Adenosine receptor A1 (Homo sapiens, UniProt P30542); assay: Displacement of [3H]DPCPX from human A1AR incubated for 60 mins by scintillation counter analysis
T3 sequence (P30542 whole entry): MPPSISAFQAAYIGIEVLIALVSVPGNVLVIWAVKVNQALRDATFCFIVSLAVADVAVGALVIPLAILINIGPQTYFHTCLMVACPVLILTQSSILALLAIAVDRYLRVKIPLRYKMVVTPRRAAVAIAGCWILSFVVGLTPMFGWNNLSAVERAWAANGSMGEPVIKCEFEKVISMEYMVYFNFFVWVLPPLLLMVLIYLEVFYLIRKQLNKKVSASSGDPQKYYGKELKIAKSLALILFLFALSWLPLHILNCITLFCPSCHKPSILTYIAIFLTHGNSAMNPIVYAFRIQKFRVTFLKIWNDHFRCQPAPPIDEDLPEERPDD

[12] = Elimination rate constant in male ICR mouse at 20 mg/kg, po measured up to 24 hrs by LC-MS/MS analysis; format: ADME, organism-based; conditions: in vivo
[13] = Cmax in male ICR mouse at 20 mg/kg, po measured up to 24 hrs by LC-MS/MS analysis; format: ADME, organism-based; set-up: time < 24 hrs, dose 20 mg/kg, route po; conditions: in vivo

Adenosine receptor A2a, sequence (P29274 whole entry): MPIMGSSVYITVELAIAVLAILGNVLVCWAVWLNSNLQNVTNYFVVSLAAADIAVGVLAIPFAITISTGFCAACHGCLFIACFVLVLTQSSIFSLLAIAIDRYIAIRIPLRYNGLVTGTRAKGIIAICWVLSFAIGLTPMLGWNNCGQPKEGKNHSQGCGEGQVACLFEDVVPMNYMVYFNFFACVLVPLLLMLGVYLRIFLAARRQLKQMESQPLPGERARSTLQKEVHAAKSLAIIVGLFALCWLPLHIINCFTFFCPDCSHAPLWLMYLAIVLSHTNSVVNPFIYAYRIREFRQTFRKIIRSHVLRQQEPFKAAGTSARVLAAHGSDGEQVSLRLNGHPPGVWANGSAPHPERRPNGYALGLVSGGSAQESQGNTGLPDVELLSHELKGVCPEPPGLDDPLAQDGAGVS

SMILES | Ki [1] | IC50 [2] | GI50 [3] | GI50 [4] | other results
Nc1nc(-c2ccco2)c2cnn(CCCc3ccc(C(=O)NO)cc3)c2n1 | 863 nM | 64.5 nM | – | – | –
Cc1ccc(-c2nc(N)nc3c2cnn3Cc2cccc(OCCCCCCC(=O)NO)n2)o1 | 159 nM | 29.5 nM | 6410 nM | 7680 nM | –
Cc1ccc(-c2nc(N)nc3c2cnn3CCCCCCCC(=O)NO)o1 | 585 nM | 7.2 nM | – | – | –
Nc1nc(-c2ccco2)c2cnn(CCCCCCC(=O)NO)c2n1 | 301 nM | 2.4 nM | 350 nM | 33000 nM | –
O=C(CCCCCCC(=O)Nc1ccccc1)NO [VORINOSTAT] | – | – | 2740 nM | 2350 nM | –
Nc1nc(-c2ccco2)c2cnn(CCCCCCCC(=O)NO)c2n1 | 276 nM | 9.3 nM | – | – | –
Cc1ccc(-c2nc(N)nc3c2cnn3Cc2ccc(C(=O)NO)cc2)o1 | 2540 nM | 14 nM | – | – | –
Nc1nc(-c2ccco2)c2cnn(Cc3ccc(/C=C/C(=O)Nc4ccccc4N)cc3)c2n1 | > 10000 nM | 116 nM | – | – | –
Nc1nc(-c2ccco2)c2cnn(Cc3ccc(C(=O)Nc4ccccc4N)cc3)c2n1 | 1720 nM | 17.5 nM | – | – | –
Cc1ccc(-c2nc(N)nc3c2cnn3Cc2cccc(OCCCCCC(=O)NO)c2)o1 | 12.3 nM | 95 nM | 23200 nM | 18900 nM | –
Cc1ccc(-c2nc(N)nc3c2cnn3CCCCCCC(=O)NO)o1 | 334 nM | 2.2 nM | – | – | –
Nc1nc(-c2ccco2)c2cnn(CCOc3ccc(C(=O)Nc4ccccc4N)cc3)c2n1 | 974 nM | 105 nM | – | – | –
Nc1nc(-c2ccco2)c2cnn(Cc3cccc(OCCCCC(=O)NO)c3)c2n1 | 7.3 nM | 151 nM | – | – | –
Nc1nc(-c2ccco2)c2cnn(CCCCCC(=O)NO)c2n1 | 777 nM | 9.3 nM | – | – | –
Nc1nc(-c2ccco2)c2cnn(CCCCC(=O)NO)c2n1 | 1560 nM | 394 nM | – | – | –
Cc1ccc(-c2nc(N)nc3c2cnn3Cc2cccc(/C=C/C(=O)Nc3ccccc3N)c2)o1 | 25 nM | 2530 nM | – | – | –
Nc1nc(-c2ccco2)c2cnn(CCOc3ccc(C(=O)NO)cc3)c2n1 | > 10000 nM | 11.1 nM | – | – | –
Nc1nc(-c2ccco2)c2cnn(Cc3cccc(OCCCCCC(=O)NO)c3)c2n1 | 10.9 nM | 86 nM | 9820 nM | 9990 nM | –
Nc1nc(-c2ccco2)c2cnn(Cc3ccc(N)c(OCCCCCCC(=O)NO)c3)c2n1 | 15 nM | 37 nM | 28200 nM | 22800 nM | –
Cc1ccc(-c2nc(N)nc3c2cnn3Cc2cccc(OCCCCC(=O)NO)c2)o1 | 25.9 nM | 206 nM | – | – | –
Cc1ccc(-c2nc(N)nc3c2cnn3Cc2cccc(OCCCCC(=O)NO)n2)o1 | 72 nM | 573 nM | – | – | –

SMILES | Ki [1] | IC50 [2] | GI50 [3] | GI50 [4] | other results
Cc1ccc(-c2nc(N)nc3c2cnn3CCc2ccc(C(=O)Nc3ccccc3N)cc2)o1 | 125 nM | 126 nM | 7970 nM | 9130 nM | –
Nc1nc(-c2ccco2)c2cnn(Cc3ccc(/C=C/C(=O)NO)cc3)c2n1 | 3590 nM | 7.1 nM | – | – | –
Nc1nc(-c2ccco2)c2cnn(Cc3cccc(/C=C/C(=O)Nc4ccccc4N)c3)c2n1 | 35.8 nM | 1180 nM | – | – | –
Nc1nc(-c2ccco2)c2cnn(Cc3ccc(C(=O)NO)cc3)c2n1 | 863 nM | 12.8 nM | – | – | –
Cc1ccc(-c2nc(N)nc3c2cnn3CCc2ccc(C(=O)NO)cc2)o1 | 295 nM | 73.5 nM | – | – | –
Cc1ccc(-c2nc(N)nc3c2cnn3Cc2cccc(OCCCCCCC(=O)NO)c2)o1 | 52.8 nM | 42.5 nM | 11300 nM | 13200 nM | –
Cc1ccc(-c2nc(N)nc3c2cnn3CCCCCC(=O)NO)o1 | 617 nM | 7.3 nM | – | – | –
Nc1nc(-c2ccco2)c2cnn(Cc3cccc(OCCCCCCC(=O)NO)n3)c2n1 | 14.7 nM | 23 nM | 5060 nM | 5800 nM | half-life [5]: 1.48 h; Ki [6]: 2500 nM; Ki [7]: > 10000 nM; Tmax [8]: 0.25 h; AUC(0-t) at 24 h [9]: 302 ng·h/mL; MRT [10]: 1.16 h; Ki [11]: 641 nM; k el at 24 h [12]: 0.000131 s⁻¹; Cmax [13]: 608 ng/mL
Nc1nc(-c2ccco2)c2cnn(Cc3cccc(OCCCCCC(=O)NO)n3)c2n1 | 68.3 nM | 192 nM | – | – | –
Cc1ccc(-c2nc(N)nc3c2cnn3CCCCC(=O)NO)o1 | 1830 nM | 228 nM | – | – | –
Nc1nc(-c2ccco2)c2cnn(Cc3cccc(OCCCCC(=O)NO)n3)c2n1 | 50.7 nM | 420 nM | – | – | –
Cc1ccc(-c2nc(N)nc3c2cnn3Cc2ccc(N)c(OCCCCCCC(=O)NO)c2)o1 | 74.3 nM | 45 nM | 26700 nM | 19600 nM | –
Nc1nc(-c2ccco2)c2cnn(Cc3cccc(/C=C/C(=O)NO)c3)c2n1 | 130 nM | 8.4 nM | 1910 nM | 2320 nM | half-life [5]: 7.53 h; Tmax [8]: 0.25 h; AUC(0-t) at 24 h [9]: 182 ng·h/mL; MRT [10]: 9.54 h; k el at 24 h [12]: 2.69e-05 s⁻¹; Cmax [13]: 122 ng/mL
Cc1ccc(-c2nc(N)nc3c2cnn3Cc2cccc(/C=C/C(=O)NO)c2)o1 | 378 nM | 14.5 nM | – | – | –
Cc1ccc(-c2nc(N)nc3c2cnn3Cc2ccc(C(=O)Nc3ccccc3N)cc2)o1 | > 10000 nM | 45 nM | – | – | –
Nc1nc(-c2ccco2)c2cnn(CCCOc3ccc(C(=O)Nc4ccccc4N)cc3)c2n1 | 147 nM | 190 nM | > 30000 nM | > 30000 nM | –
Cc1ccc(-c2nc(N)nc3c2cnn3Cc2cccc(OCCCCCC(=O)NO)n2)o1 | 72.8 nM | 210 nM | – | – | –
Nc1nc(-c2ccco2)c2cnn(CCc3ccc(C(=O)NO)cc3)c2n1 | 436 nM | 126 nM | – | – | –
Cc1ccc(-c2nc(N)nc3c2cnn3CCCOc2ccc(C(=O)Nc3ccccc3N)cc2)o1 | 107 nM | 226 nM | – | – | –
Nc1ccccc1NC(=O)c1ccc(CNc2nccc(-c3cccnc3)n2)cc1 [MOCETINOSTAT] | – | – | 1640 nM | 1770 nM | –
Nc1nc(-c2ccco2)c2cnn(CCCc3ccc(C(=O)Nc4ccccc4N)cc3)c2n1 | 140 nM | 186 nM | 6960 nM | 7560 nM | –
